In the NIST ThermoML archive (doi:10.1016/j.jct.2019.03.023):
Where “and” joins values, the source holds several entries; their conditions need not be identical. Equal values may be shown once.

Assay: molar heat capacity at constant volume
Conditions: Vacuum adiabatic calorimetry

CC(C)O [propan-2-ol]
Fluid (supercritical or subcritical phases)
Conditions	molar heat capacity at constant volume
506.89 K, Mass density=324.5 kg/m3	348.43 J/K/mol and 347.05 J/K/mol
506.89 K, Mass density=343.1 kg/m3	330.28 J/K/mol
506.97 K, Mass density=329.2 kg/m3	330.22 J/K/mol
506.98 K, Mass density=288.99 kg/m3	360.33 J/K/mol
506.98 K, Mass density=324.5 kg/m3	352.64 J/K/mol
506.98 K, Mass density=343.1 kg/m3	333.83 J/K/mol
507.07 K, Mass density=288.99 kg/m3	365.74 J/K/mol
507.07 K, Mass density=324.5 kg/m3	346.75 J/K/mol
507.08 K, Mass density=343.1 kg/m3	331.96 J/K/mol
507.11 K, Mass density=329.2 kg/m3	342.54 J/K/mol
507.17 K, Mass density=288.99 kg/m3	355.1 J/K/mol
507.17 K, Mass density=293.3 kg/m3	358.29 J/K/mol
507.17 K, Mass density=324.5 kg/m3	351.56 J/K/mol
507.17 K, Mass density=343.1 kg/m3	333.89 J/K/mol
507.2 K, Mass density=329.2 kg/m3	339.6 J/K/mol
507.26 K, Mass density=288.99 kg/m3	361.53 J/K/mol
507.26 K, Mass density=324.5 kg/m3	348.79 J/K/mol
507.26 K, Mass density=343.1 kg/m3	336.65 J/K/mol
507.3 K, Mass density=329.2 kg/m3	339.42 J/K/mol
507.35 K, Mass density=293.3 kg/m3	367 J/K/mol
507.35 K, Mass density=324.5 kg/m3	351.56 J/K/mol
507.36 K, Mass density=343.1 kg/m3	338.58 J/K/mol
507.4 K, Mass density=329.2 kg/m3	335.93 J/K/mol
507.45 K, Mass density=293.3 kg/m3	363.82 J/K/mol
507.45 K, Mass density=324.5 kg/m3	357.02 J/K/mol
507.45 K, Mass density=343.1 kg/m3	335.69 J/K/mol
507.5 K, Mass density=329.2 kg/m3	343.02 J/K/mol
507.54 K, Mass density=293.3 kg/m3	371.39 J/K/mol
507.54 K, Mass density=324.5 kg/m3	349.09 J/K/mol
507.54 K, Mass density=343.1 kg/m3	337.79 J/K/mol
507.59 K, Mass density=329.2 kg/m3	338.94 J/K/mol
507.63 K, Mass density=293.3 kg/m3	367.06 J/K/mol
507.63 K, Mass density=324.5 kg/m3	353.72 J/K/mol
507.65 K, Mass density=343.1 kg/m3	339.78 J/K/mol
507.69 K, Mass density=329.2 kg/m3	354.86 J/K/mol
507.7 K, Mass density=329.2 kg/m3	347.95 J/K/mol
507.73 K, Mass density=293.3 kg/m3	369.4 J/K/mol
507.73 K, Mass density=324.5 kg/m3	360.99 J/K/mol
507.82 K, Mass density=274 kg/m3	385.09 J/K/mol
507.82 K, Mass density=293.3 kg/m3	371.39 J/K/mol
507.82 K, Mass density=324.5 kg/m3	358.53 J/K/mol
507.82 K, Mass density=343.1 kg/m3	338.76 J/K/mol
507.89 K, Mass density=329.2 kg/m3	352.76 J/K/mol
507.91 K, Mass density=274 kg/m3	385.33 J/K/mol
507.91 K, Mass density=293.3 kg/m3	375.83 J/K/mol
507.91 K, Mass density=324.5 kg/m3	365.2 J/K/mol
507.91 K, Mass density=343.1 kg/m3	340.98 J/K/mol
507.95 K, Mass density=343.1 kg/m3	342.54 J/K/mol and 212.44 J/K/mol
508.01 K, Mass density=234.3 kg/m3	436.29 J/K/mol
508.01 K, Mass density=255.8 kg/m3	424.87 J/K/mol
508.01 K, Mass density=274 kg/m3	393.86 J/K/mol
508.01 K, Mass density=293.3 kg/m3	380.52 J/K/mol
508.01 K, Mass density=324.5 kg/m3	363.27 J/K/mol
508.01 K, Mass density=343.1 kg/m3	205.52 J/K/mol
508.04 K, Mass density=329.2 kg/m3	358.17 J/K/mol
508.1 K, Mass density=234.3 kg/m3	442.3 J/K/mol
508.1 K, Mass density=255.8 kg/m3	425.65 J/K/mol
508.1 K, Mass density=266.3 kg/m3	412.31 J/K/mol
508.1 K, Mass density=274 kg/m3	396.93 J/K/mol
508.1 K, Mass density=281.9 kg/m3	391.7 J/K/mol
508.1 K, Mass density=293.3 kg/m3	381.6 J/K/mol
508.1 K, Mass density=324.5 kg/m3	367.06 J/K/mol
508.1 K, Mass density=343.1 kg/m3	191.64 J/K/mol
508.16 K, Mass density=329.2 kg/m3	363.76 J/K/mol and 218.14 J/K/mol
508.18 K, Mass density=329.2 kg/m3	208.53 J/K/mol
508.19 K, Mass density=234.3 kg/m3	447.71 J/K/mol
508.19 K, Mass density=255.8 kg/m3	429.38 J/K/mol
508.19 K, Mass density=266.3 kg/m3	417.66 J/K/mol
508.19 K, Mass density=274 kg/m3	404.38 J/K/mol
508.19 K, Mass density=281.9 kg/m3	398.49 J/K/mol
508.19 K, Mass density=288.99 kg/m3	390.74 J/K/mol
508.19 K, Mass density=293.3 kg/m3	383.29 J/K/mol
508.19 K, Mass density=324.5 kg/m3	370.25 J/K/mol
508.19 K, Mass density=343.1 kg/m3	187.98 J/K/mol
508.28 K, Mass density=234.3 kg/m3	453.36 J/K/mol
508.28 K, Mass density=255.8 kg/m3	438.99 J/K/mol
508.28 K, Mass density=266.3 kg/m3	426.19 J/K/mol
508.28 K, Mass density=274 kg/m3	414.84 J/K/mol
508.28 K, Mass density=281.9 kg/m3	409.07 J/K/mol
508.28 K, Mass density=288.99 kg/m3	395.61 J/K/mol
508.28 K, Mass density=293.3 kg/m3	391.22 J/K/mol
508.28 K, Mass density=324.5 kg/m3	371.75 J/K/mol and 221.39 J/K/mol
508.28 K, Mass density=329.2 kg/m3	195.91 J/K/mol
508.29 K, Mass density=343.1 kg/m3	181.07 J/K/mol
508.34 K, Mass density=324.5 kg/m3	214 J/K/mol
508.37 K, Mass density=329.2 kg/m3	192.6 J/K/mol
508.38 K, Mass density=234.3 kg/m3	464.9 J/K/mol
508.38 K, Mass density=255.8 kg/m3	446.27 J/K/mol
508.38 K, Mass density=266.3 kg/m3	435.27 J/K/mol
508.38 K, Mass density=274 kg/m3	423.79 J/K/mol
508.38 K, Mass density=281.9 kg/m3	417.78 J/K/mol
508.38 K, Mass density=288.99 kg/m3	404.68 J/K/mol
508.38 K, Mass density=293.3 kg/m3	398.73 J/K/mol
508.38 K, Mass density=343.1 kg/m3	178 J/K/mol
508.47 K, Mass density=234.3 kg/m3	474.81 J/K/mol
508.47 K, Mass density=255.8 kg/m3	454.98 J/K/mol
508.47 K, Mass density=266.3 kg/m3	444.04 J/K/mol
508.47 K, Mass density=274 kg/m3	437.73 J/K/mol
508.47 K, Mass density=281.9 kg/m3	430.04 J/K/mol
508.47 K, Mass density=288.99 kg/m3	411.05 J/K/mol
508.47 K, Mass density=293.3 kg/m3	405.04 J/K/mol
508.47 K, Mass density=324.5 kg/m3	207.09 J/K/mol
508.47 K, Mass density=329.2 kg/m3	191.7 J/K/mol
508.47 K, Mass density=343.1 kg/m3	175.96 J/K/mol
508.51 K, Mass density=234.3 kg/m3	487.37 J/K/mol and 279.44 J/K/mol
508.56 K, Mass density=234.3 kg/m3	267.78 J/K/mol
508.56 K, Mass density=255.8 kg/m3	471.14 J/K/mol
508.56 K, Mass density=266.3 kg/m3	462.31 J/K/mol
508.56 K, Mass density=274 kg/m3	451.49 J/K/mol
508.56 K, Mass density=281.9 kg/m3	440.92 J/K/mol
508.56 K, Mass density=288.99 kg/m3	425.11 J/K/mol
508.56 K, Mass density=293.3 kg/m3	419.1 J/K/mol
508.56 K, Mass density=324.5 kg/m3	206.31 J/K/mol
508.56 K, Mass density=343.1 kg/m3	177.52 J/K/mol
508.57 K, Mass density=329.2 kg/m3	186.9 J/K/mol
508.61 K, Mass density=293.3 kg/m3	422.11 J/K/mol
508.66 K, Mass density=234.3 kg/m3	258.83 J/K/mol
508.66 K, Mass density=255.8 kg/m3	495.78 J/K/mol
508.66 K, Mass density=266.3 kg/m3	484.85 J/K/mol
508.66 K, Mass density=274 kg/m3	472.11 J/K/mol
508.66 K, Mass density=281.9 kg/m3	456.18 J/K/mol
508.66 K, Mass density=288.99 kg/m3	439.35 J/K/mol
508.66 K, Mass density=293.3 kg/m3	428.48 J/K/mol
508.66 K, Mass density=324.5 kg/m3	201.38 J/K/mol
508.66 K, Mass density=343.1 kg/m3	178 J/K/mol
508.67 K, Mass density=274 kg/m3	481 J/K/mol
508.67 K, Mass density=329.2 kg/m3	188.1 J/K/mol
508.68 K, Mass density=281.9 kg/m3	461.83 J/K/mol
508.68 K, Mass density=293.3 kg/m3	434.49 J/K/mol and 253.6 J/K/mol
508.69 K, Mass density=255.8 kg/m3	507.8 J/K/mol
508.69 K, Mass density=274 kg/m3	491.94 J/K/mol
508.69 K, Mass density=288.99 kg/m3	447.41 J/K/mol and 264.72 J/K/mol
508.7 K, Mass density=255.8 kg/m3	524.03 J/K/mol and 301.68 J/K/mol
508.71 K, Mass density=266.3 kg/m3	520.48 J/K/mol
508.71 K, Mass density=281.9 kg/m3	469.58 J/K/mol and 277.46 J/K/mol
508.72 K, Mass density=266.3 kg/m3	572.71 J/K/mol and 337.73 J/K/mol
508.72 K, Mass density=274 kg/m3	515.62 J/K/mol and 304.08 J/K/mol
508.72 K, Mass density=293.3 kg/m3	245.07 J/K/mol
508.73 K, Mass density=255.8 kg/m3	293.08 J/K/mol
508.74 K, Mass density=281.9 kg/m3	270.61 J/K/mol
508.75 K, Mass density=234.3 kg/m3	245.01 J/K/mol
508.75 K, Mass density=266.3 kg/m3	306.97 J/K/mol
508.75 K, Mass density=288.99 kg/m3	247.77 J/K/mol
508.75 K, Mass density=324.5 kg/m3	199.15 J/K/mol
508.75 K, Mass density=343.1 kg/m3	175.96 J/K/mol
508.76 K, Mass density=329.2 kg/m3	186.9 J/K/mol
508.84 K, Mass density=234.3 kg/m3	238.7 J/K/mol
508.84 K, Mass density=255.8 kg/m3	268.32 J/K/mol
508.84 K, Mass density=266.3 kg/m3	281.06 J/K/mol
508.84 K, Mass density=274 kg/m3	273.13 J/K/mol
508.84 K, Mass density=281.9 kg/m3	250 J/K/mol
508.84 K, Mass density=288.99 kg/m3	237.68 J/K/mol
508.84 K, Mass density=293.3 kg/m3	231.97 J/K/mol
508.84 K, Mass density=324.5 kg/m3	196.75 J/K/mol
508.84 K, Mass density=343.1 kg/m3	176.44 J/K/mol
508.94 K, Mass density=234.3 kg/m3	228.96 J/K/mol
508.94 K, Mass density=255.8 kg/m3	253 J/K/mol
508.94 K, Mass density=266.3 kg/m3	267.3 J/K/mol
508.94 K, Mass density=274 kg/m3	261.53 J/K/mol
508.94 K, Mass density=281.9 kg/m3	233.77 J/K/mol
508.94 K, Mass density=288.99 kg/m3	223.91 J/K/mol
508.94 K, Mass density=293.3 kg/m3	219.23 J/K/mol
508.94 K, Mass density=324.5 kg/m3	197.11 J/K/mol
509.02 K, Mass density=255.8 kg/m3	241.34 J/K/mol
509.03 K, Mass density=266.3 kg/m3	252.46 J/K/mol
509.03 K, Mass density=274 kg/m3	247.59 J/K/mol
509.03 K, Mass density=281.9 kg/m3	225.96 J/K/mol
509.03 K, Mass density=288.99 kg/m3	217.96 J/K/mol
509.03 K, Mass density=293.3 kg/m3	209.73 J/K/mol
509.03 K, Mass density=324.5 kg/m3	192.42 J/K/mol
509.12 K, Mass density=234.3 kg/m3	213.22 J/K/mol
509.12 K, Mass density=266.3 kg/m3	242.96 J/K/mol
509.12 K, Mass density=274 kg/m3	238.4 J/K/mol
509.12 K, Mass density=281.9 kg/m3	217.24 J/K/mol

molar heat capacity at constant volume [J/K/mol]
Conditions	507.95 K	508.16 K	508.28 K	508.51 K	508.68 K	508.69 K	508.7 K	508.71 K	508.72 K
Gas	–	–	–	279.44	–	–	301.68	–	337.73
Liquid	212.44	218.14	221.39	–	253.6	264.72	–	277.46	304.08
